Several values for one entry are separate records, joined by “and”; a condition that tells them apart may be missing. Identical values can stand only once. Counter-ions that a name gives are not always drawn. Like-named read-outs stand apart in the source and are kept apart here. Where only a bound is given, the exact number is not on record here.

Common to all, as to type: biochemical
Assay [1] concerns the target wild-type Epidermal Growth Factor Receptor (EGFR) (Homo sapiens (Human), UniProt P00533). As to the kind of experiment: WT-EGFR Kinase Assay (TR-FRET, 2 mM ATP). On the technique in general: TR-FRET usually uses a lanthanide donor and a delayed reading to cut background.
In assay [2] the target is T1, human CSNK1A1 (Homo sapiens (Human), UniProt P48729). As to the kind of experiment: CSNK1A1 Assay 2 (ADP-Glo, 1 μM ATP). The following applies: substrate biotin-Ahx-KRRRAL-pS-VASLPGL, read-out: CSNK1A1 Assay 2 IC50 [mol/l] (median). The protocol: CSNK1A1-inhibitory activity of compounds of the present invention in presence of 1 μM adenosine-tri-phosphate (ATP) was quantified employing the CSNK1A1 assay as described in the following paragraphs. In essence, the enzyme activity is measured by quantification of the adenosine-di-phosphate (ADP), which is generated as a co-product of the enzyme reaction, via the “ADP-Glo™ Kinase Assay” kit from the company Promega. This detection system works as follows: In a first step the ATP not consumed in the kinase reaction is quantitatively converted to cAMP employing an adenylate cyclase (“ADP-Glo-reagent”), then the adenylate cyclase is stopped and the ADP generated in the kinase reaction converted to ATP which generates in a luciferase-based reaction a glow-luminescence signal (“Kinase Detection Reagent”). Recombinant fusion protein of N-terminal Glutathion-S-Transferase (GST) and full-length human CSNK1A1, expressed by baculovirus infected insect cells and purified via Glutathion affinity chromatography, was purchased from Life Technologies (product no. PV4174) and used as enzyme. As substrate for the kinase reaction the biotinylated peptide biotin-Ahx-KRRRAL-pS-VASLPGL (C-terminus in amide form) was used which can be purchased e.g. from the company Biosyntan (Berlin-Buch, Germany).
T1 sequence (P48729 whole entry): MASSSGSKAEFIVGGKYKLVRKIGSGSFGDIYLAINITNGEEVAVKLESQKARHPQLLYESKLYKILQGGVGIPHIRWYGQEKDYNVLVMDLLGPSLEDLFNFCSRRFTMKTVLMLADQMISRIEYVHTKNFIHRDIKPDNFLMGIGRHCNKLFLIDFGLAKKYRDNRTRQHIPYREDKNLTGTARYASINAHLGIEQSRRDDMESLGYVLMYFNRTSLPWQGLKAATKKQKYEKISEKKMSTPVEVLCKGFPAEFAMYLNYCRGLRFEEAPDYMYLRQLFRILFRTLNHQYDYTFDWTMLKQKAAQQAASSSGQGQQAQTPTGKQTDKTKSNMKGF
For the assay 50 nl of a 100 fold concentrated solution of the test compound in DMSO was pipetted into a white 1536-well microtiter plate (Greiner Bio-One, Frickenhausen, Germany), 2 μL of a solution of CSNK1A1 in aqueous assay buffer [50 mM HEPES pH 7.5, 10% (v/v) glycerol, 10 mM MgCl2, 50 mM NaCl, 1 mM dithiothreitol, 0.01% (w/v) bovine serum albumin, 0.01% (v/v) Triton X-100] were added and the mixture was incubated for 15 min at 22° C. to allow pre-binding of the test compounds to the enzyme before the start of the kinase reaction. […] The concentration of CSNK1A1 was adjusted depending of the activity of the enzyme lot and was chosen appropriate to have the assay in the linear range, a typical concentrations are about 0.0375 ng/μL. The reaction was stopped by the addition of 2.5 μL of “ADP-Glo-reagent” (1:1.5 fold diluted with water) and the resulting mixture was incubated at 22° C. for 1 h to convert the ATP not consumed in the kinase reaction completely […]. Subsequently 2.5 μL of the “kinase detection reagent” (1.2 fold more concentrated than recommended by the producer) were added, the resulting mixture was incubated at 22° C. for 1 h and then the luminescence measured with a suitable measurement instrument (e.g. Viewlux™ from Perkin-Elmer). The amount of emitted light was taken as a measure for the amount of ADP generated and thereby for the activity of the CSNK1A1.
Background: ADP-Glo turns the ADP formed in a reaction into a luminescent signal.

For assay [3], the target named is T1, human CSNK1A1. As to the kind of experiment: CSNK1A1 High ATP Assay (ADP-Glo, 1 mM ATP). The following applies: read-out: CSNK1A1 high ATP assay IC50 [mol/l] (median). The protocol:
CSNK1A1-inhibitory activity of compounds of the present invention in presence of 1 mM adenosine-tri-phosphate (ATP) was quantified employing the CSNK1A1-high-ATP-assay as described in the following paragraphs. In essence, the enzyme activity is measured by quantification of the adenosine-di-phosphate (ADP), which is generated as a co-product of the enzyme reaction, via the “ADP-Glo™ Kinase Assay” kit from the company Promega. This detection system works as follows: In a first step the ATP not consumed in the kinase reaction is quantitatively converted to cAMP employing an adenylate cyclase (“ADP-Glo-reagent”), then the adenylate cyclase is stopped and the ADP generated in the kinase reaction converted to ATP which generates in a luciferase-based reaction a glow-luminescence signal (“Kinase Detection Reagent”).
Recombinant fusion protein of N-terminal Glutathion-S-Transferase (GST) and full-length human CSNK1A1, expressed by baculovirus infected insect cells and purified via Glutathion affinity chromatography, was purchased from Life Technologies (product no. PV4174) and used as enzyme. As substrate for the kinase reaction the biotinylated peptide biotin-Ahx-KRRRAL-pS-VASLPGL (C-terminus in amide form) was used which can be purchased e.g. from the company Biosyntan (Berlin-Buch, Germany).
For the assay 50 nl of a 100 fold concentrated solution of the test compound in DMSO was pipetted into a white low volume 384-well microtiter plate (Greiner Bio-One, Frickenhausen, Germany), 2 μL of a solution of CSNK1A1 in aqueous assay buffer [50 mM HEPES pH 7.5, 10% (v/v) glycerol, 10 mM MgCl2, 50 mM NaCl, 1 mM dithiothreitol, 0.01% (w/v) bovine serum albumin, 0.01% (v/v) Triton X-100] were added and the mixture was incubated for 15 min at 22° C. to allow pre-binding of the test compounds to the enzyme before the start of the kinase reaction. […] The concentration of CSNK1A1 was adjusted depending of the activity of the enzyme lot and was chosen appropriate to have the assay in the linear range, a typical concentration is about 0.4 ng/μL. The reaction was stopped by the addition of 2.5 μL of “ADP-Glo-reagent” (1:1.5 fold diluted with water) and the resulting mixture was incubated at 22° C. for 1 h to convert the ATP not consumed in the kinase reaction completely […]. Subsequently 2.5 μL of the “kinase detection reagent” (1.2 fold more concentrated than recommended by the producer) were added, the resulting mixture was incubated at 22° C. for 1 h and then the luminescence measured with a suitable measurement instrument (e.g. Viewlux™ from Perkin-Elmer). The amount of emitted light was taken as a measure for the amount of ADP generated and thereby for the activity of the CSNK1A1.

In the next assay the target is human CSNK1D (Homo sapiens (Human), UniProt P48730). As to the kind of experiment: CSNK1D Assay (ADP-Glo, 1 μM ATP). The following applies: read-out: CSNK1D IC50 [mol/l] (median). The protocol:
CSNK1 D-inhibitory activity of compounds of the present invention in presence of 1 μM adenosine-tri-phosphate (ATP) was quantified employing the CSNK1D assay as described in the following paragraphs. In essence, the enzyme activity is measured by quantification of the adenosine-di-phosphate (ADP), which is generated as a co-product of the enzyme reaction, via the “ADP-Glo™ Kinase Assay” kit from the company Promega. This detection system works as follows: In a first step the ATP not consumed in the kinase reaction is quantitatively converted to cAMP employing an adenylate cyclase (“ADP-Glo-reagent”), then the adenylate cyclase is stopped and the ADP generated in the kinase reaction converted to ATP which generates in a luciferase-based reaction a glow-luminescence signal (“Kinase Detection Reagent”). Recombinant fusion protein of N-terminal Glutathion-S-Transferase (GST) and full-length human CSNK1D, expressed by baculovirus infected insect cells and purified via Glutathion affinity chromatography, was purchased from Life Technologies (product no. PV3665) and used as enzyme. As substrate for the kinase reaction the biotinylated peptide Btn-Ahx-[…] (C-terminus in amide form) was used which can be purchased e.g. from the company Biosyntan (Berlin-Buch, Germany).
For the assay 50 nl of a 100 fold concentrated solution of the test compound in DMSO was pipetted into a white 1536-well microtiter plate (Greiner Bio-One, Frickenhausen, Germany), 2 μL of a solution of CSNK1D in aqueous assay buffer [50 mM HEPES pH 7.5, 10% (v/v) glycerol, 10 mM MgCl2, 50 mM NaCl, 1 mM dithiothreitol, 0.01% (w/v) bovine serum albumin, 0.01% (v/v) Triton X-100] were added and the mixture was incubated for 15 min at 22° C. to allow pre-binding of the test compounds to the enzyme before the start of the kinase reaction. […] The concentration of CSNK1 D was adjusted depending of the activity of the enzyme lot and was chosen appropriate to have the assay in the linear range, a typical concentration is about 0.5 ng/μL. The reaction was stopped by the addition of 2.5 μL of “ADP-Glo-reagent” (1:1.5 fold diluted with water) and the resulting mixture was incubated at 22° C. for 1 h to convert the ATP not consumed in the kinase reaction completely […]. Subsequently 2.5 μL of the “kinase detection reagent” (1.2 fold more concentrated than recommended by the producer) were added, the resulting mixture was incubated at 22° C. for 1 h and then the luminescence measured with a suitable measurement instrument (e.g. Viewlux™ from Perkin-Elmer). The amount of emitted light was taken as a measure for the amount of ADP generated and thereby for the activity of the CSNK1D.

[4] abbreviates: EGFR Wildtyp- 2 mM ATP IC50 [mol/l] (median).
[5] abbreviates: read-out: EGFR Wildtyp- 2 mM ATP IC50 [mol/l] (median).

Chain of wild-type Epidermal Growth Factor Receptor (EGFR) (P00533 669-1210): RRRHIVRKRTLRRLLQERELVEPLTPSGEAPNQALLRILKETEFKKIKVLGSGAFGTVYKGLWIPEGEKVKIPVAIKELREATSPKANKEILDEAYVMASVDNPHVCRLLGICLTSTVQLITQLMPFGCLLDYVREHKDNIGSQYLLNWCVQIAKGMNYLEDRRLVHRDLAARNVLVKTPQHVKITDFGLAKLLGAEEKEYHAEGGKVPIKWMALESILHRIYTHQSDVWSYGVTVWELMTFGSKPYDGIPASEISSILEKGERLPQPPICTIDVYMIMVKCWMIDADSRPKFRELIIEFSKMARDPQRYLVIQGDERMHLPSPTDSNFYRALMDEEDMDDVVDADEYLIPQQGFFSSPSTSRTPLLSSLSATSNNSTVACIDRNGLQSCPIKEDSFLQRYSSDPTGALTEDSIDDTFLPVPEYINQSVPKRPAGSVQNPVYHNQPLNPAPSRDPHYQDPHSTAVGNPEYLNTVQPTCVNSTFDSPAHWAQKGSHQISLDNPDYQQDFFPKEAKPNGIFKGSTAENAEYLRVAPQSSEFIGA
Chain of human CSNK1D (P48730 whole entry): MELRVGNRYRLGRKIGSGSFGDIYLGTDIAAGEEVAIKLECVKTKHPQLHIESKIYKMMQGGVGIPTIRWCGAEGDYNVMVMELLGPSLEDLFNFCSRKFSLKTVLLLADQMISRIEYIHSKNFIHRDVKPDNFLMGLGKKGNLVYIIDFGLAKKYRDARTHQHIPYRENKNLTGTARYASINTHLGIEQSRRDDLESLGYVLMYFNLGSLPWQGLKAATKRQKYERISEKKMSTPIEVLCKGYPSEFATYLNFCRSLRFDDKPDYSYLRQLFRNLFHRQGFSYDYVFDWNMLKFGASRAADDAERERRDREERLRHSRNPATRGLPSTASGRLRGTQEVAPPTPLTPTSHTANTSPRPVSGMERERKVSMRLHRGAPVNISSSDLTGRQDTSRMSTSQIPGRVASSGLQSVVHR

Turning to `CN1CCc2[nH]c(-c3ccnc(NC(=O)C(CCN4CCOCC4)c4ccccc4)c3)c(Nc3ccccc3)c2C1=O` (single isomer, unassigned) [Example 31, N-[4-(3-anilino-5-methyl-4-oxo-4,5,6,7-tetrahydro-1H-pyrrolo[3,2-c]pyridin-2-yl)pyridin-2-yl]-4-(morpholin-4-yl)-2-phenylbutanamide], the IC50 was over 20000 nM in assay [1] (setting [4]), 3.85 nM at human CSNK1A1 [2] and 249 nM at human CSNK1A1 [3].

As for `CN1CCc2[nH]c(-c3ccnc(NC(=O)C(CCN4CCOCC4)c4ccccc4)c3)c(Nc3ccccc3)c2C1=O` (single isomer, unassigned) [Example 32, N-[4-(3-anilino-5-methyl-4-oxo-4,5,6,7-tetrahydro-1H-pyrrolo[3,2-c]pyridin-2-yl)pyridin-2-yl]-4-(morpholin-4-yl)-2-phenylbutanamide], the IC50 in assay [1] (setting [5]) is over 20000 nM; at human CSNK1A1 [2], 72.2 nM; on human CSNK1A1 [3], 4560 nM.

Turning to `CN1CCc2[nH]c(-c3ccnc(NC(=O)C(CC(F)F)c4ccccc4)c3)c(Nc3ccccc3)c2C1=O` (single isomer, unassigned) [Example 34, N-[4-(3-anilino-5-methyl-4-oxo-4,5,6,7-tetrahydro-1H-pyrrolo[3,2-c]pyridin-2-yl)pyridin-2-yl]-4,4-difluoro-2-phenylbutanamide], the IC50 was over 20000 nM in assay [1] (setting [4]), 2.68 nM on human CSNK1A1 [2] and 16.5 nM at human CSNK1A1 [3].

As for `CN1CCc2[nH]c(-c3ccnc(NC(=O)C(CC(F)F)c4ccccc4)c3)c(Nc3ccccc3)c2C1=O` (single isomer, unassigned) [Example 35, N-[4-(3-anilino-5-methyl-4-oxo-4,5,6,7-tetrahydro-1H-pyrrolo[3,2-c]pyridin-2-yl)pyridin-2-yl]-4,4-difluoro-2-phenylbutanamide], the values for the IC50 (in assay [1] (setting [4]); on human CSNK1A1 [2]; on human CSNK1A1 [3]) were 14800 nM, 20.5 nM and 705 nM, respectively.

For `CC(C(=O)Nc1cc(-c2[nH]c3c(c2Nc2ccccc2)C(=O)NC(C)(C)C3)ccn1)c1ccc(F)cc1` (single isomer, unassigned; (+)) [Example 40, (+)-N-[4-(3-anilino-6,6-dimethyl-4-oxo-4,5,6,7-tetrahydro-1H-pyrrolo[3,2-c]pyridin-2-yl)pyridin-2-yl]-2-(4-fluorophenyl)propanamide], the IC50 is 10.5 nM on human CSNK1D, 4.59 nM at human CSNK1A1 [2] and 51.7 nM on human CSNK1A1 [3].

As to `CN1C(=O)c2c([nH]c(-c3ccnc(NC(=O)C(CC(F)F)c4ccc(F)cc4)c3)c2Nc2ccccc2)CC12CCC2` (single isomer, unassigned; enantiomer 1) [Example 161, (−)-N-[4-(3′-anilino-5′-methyl-4′-oxo-1′,4′,5′,7′-tetrahydrospiro[cyclobutane-1,6′-pyrrolo[3,2-c]pyridin]-2′-yl)pyridin-2-yl]-4,4-difluoro-2-(4-fluorophenyl)butanamide (Enantiomer 1)], the IC50 is 360 nM at human CSNK1D; over 20000 nM in assay [1] (setting [4]); > 20000 nM and 19100 nM and 10600 nM and 14600 nM on human CSNK1A1 [3].

`CN(C)CCC(C(=O)Nc1cc(-c2[nH]c3c(c2Nc2ccccc2)C(=O)N(C)CC3)ccn1)c1ccccc1` (centres unmarked) [Example 38, N-[4-(3-anilino-5-methyl-4-oxo-4,5,6,7-tetrahydro-1H-pyrrolo[3,2-c]pyridin-2-yl)pyridin-2-yl]-4-(dimethylamino)-2-phenylbutanamide]: the IC50 in assay [1] (setting [5]) worked out at 6690 nM; on human CSNK1A1 [2], 14.6 nM; at human CSNK1A1 [3], 1290 nM.

Compound `Cc1ccccc1Nc1c(-c2ccnc(NC(=O)Cc3ccc(F)cc3)c2)[nH]c2c1C(=O)NC(C)(C)C2` [Example 113, N-{4-[6,6-dimethyl-3-(2-methylanilino)-4-oxo-4,5,6,7-tetrahydro-1H-pyrrolo[3,2-c]pyridin-2-yl]pyridin-2-yl}-2-(4-fluorophenyl)acetamide] had an IC50 in assay [1] (setting [4]) of over 5710 nM.

In assay [1] (setting [4]), `CC1(C)Cc2[nH]c(-c3ccnc(NC(=O)Cc4ccc(F)cc4)c3)c(Nc3cccc(F)n3)c2C(=O)N1` [Example 127, 2-(4-fluorophenyl)-N-(4-{3-[(6-fluoropyridin-2-yl)amino]-6,6-dimethyl-4-oxo-4,5,6,7-tetrahydro-1H-pyrrolo[3,2-c]pyridin-2-yl}pyridin-2-yl)acetamide-1,1′,1″-phosphoryltripyrrolidine salt] had an IC50 of 16900 nM.

(Values after patent US12227501B2, “3-amino-2-[2-(acylamino)pyridin-4-yl]-1,5,6,7-tetrahydro-4h-pyrrolo[3,2-c]pyridin-4-one as CSNK1 inhibitors” (Bayer Aktiengesellschaft, priority 2019, dated 2025).)
